# Source: patent US20140147848A1 (UNIVERSITY OF TSUKUBA, priority 2012, published 2014)
# Like-named read-outs stand apart in the source and are kept apart here.
# Tests used:
# [1] = tested on: Caco-2 cells
# Procedure: Specifically, Caco-2 cells were treated with concentrations of 0, 1 ppm, 5 ppm, 50 ppm, 60 ppm, and 70 ppm and analyzed by an MTT assay at 24 h, 48 h, and 72 h post-treatment.
# The human colon adenocarcinoma cell line Caco-2 was kindly provided by Dr. Makoto Shimizu of the University of Tokyo, Japan. Caco-2 cells were cultured in Dulbecco's modified Eagle's medium (DMEM; Sigma) supplemented with 10% fetal calf serum (FCS), 1% nonessential amino acids (NEAA) and 1% Penicillin/Streptomycin (5 mg/ml each), and incubated in a 95% air and 5% CO2 atmosphere at 37° C. The cells were sub-cultured at a split ratio of 1:3 every 2 days.
# Cell viability was assessed using a conventional MTT reduction assay. […] At the respective time points, 10 μl of MTT stock solution (5 mg/ml) was added to the culture medium and incubated for 6 h at 37° C. The formazan was extracted with 100 μl 10% SDS (W/V), and the absorbance was measured with a microliter plate reader at 570 nm wavelength.
# [2] = tested on: Caco-2 cells; remark: listed apart in the source
# Procedure: Cells were then harvested by centrifugation, where the supernatant was discarded and the pellet was resuspended in 1 ml of PBS. Genomic DNA was then purified using commercial DNA purification kit from QIAGEN. 1 μg of DNA sample was added to 2 μl of loading buffer (Wako) and then loaded onto a 2% agarose gel. The electrophoresis was carried out at a constant voltage of 100 V for 20 min and the DNA was finally observed under ultraviolet illumination after staining with ethidium bromide.
# [3] = tested on: Thioredoxin (THIO); conditions: LAS 60 ppm
# Source text: (§1) Note that in all figures asterisks represent the significance of the difference compared to the control, e.g., * for p value<0.05 and ** for p value<0.01.
# [4] = tested on: Caco-2 cells; conditions: LAS 60 ppm
# Procedure: as §1
# The determination of intracellular ROS was performed using the OxiSelect™ Intracellular ROS Assay Kit, from CELL BIOLABS, INC., according to the manufacturer's protocol. Briefly, Caco-2 cells were cultured in a 96-well plate for 24 h, and then pre-incubated for 60 min with DCFH-DA. […] After a different incubation times of, for example, 1 h, 3 h, 6 h, and 12 h, the fluorescence was read using a plate reader at 480 nm/530 nm excitation/emission wavelengths. The ROS content was determined by comparison with the predetermined DCF standard curve.
# [5] = tested on: Caco-2 monolayer
# Procedure: TEER measurements were obtained by growing the cells at a density of 2·10^5 cells/cm^2 in 6.5-mm diameter collagen coated Transwell (0.4 μm PTFE membrane) on 24-well plates. The medium was changed every 2 days, and the cells were cultured for 12 days to establish monolayer integrity. TEER measurements were performed according to the method of Hashimoto et al. (1997). After a 12-day culture period, the cell monolayer was rinsed with PBS.
# [6] = tested on: Caco-2 cells; remark: listed apart in the source
# Procedure: Caspase assay was performed using Immunochemistry Technologies, LLC's Apoptosis detection kit, according to the manufacturer's protocol. […] After treatment, approximately 290-300 μl of each cell suspension was transferred to sterile tubes (e.g., cell density should be around 1×10^7 cells/ml). 10 μl of 30×FLICA solution was added directly to the 290-300 μl cell suspensions, and then incubate cells for 1 hour at 37° C. under 5% CO2, protecting the tubes from light. 2 ml of 1× wash buffer was added to each tube. The tubes were then mix and centrifuge cells at <400×g for 5 minutes at room temperature (RT). The supernatant was carefully remove and discard. The cell pellet was resuspended in 1 ml 1× wash buffer, and the cells were centrifuged again at <400×g for 5 minutes at RT. The supernatant was carefully removed and discarded. The cells were resuspended in 400 μl PBS, about 100 μl of the cell suspensions was placed into each of 2 wells of a black microplate. Finally the fluorescence intensity of sulforhodamine (excitation 550 nm, emission 595 nm) was measured and used a fluorescence plate reader.
# [7] = tested on: Caco-2 cells; conditions: 5 ppm and 60 ppm LAS, 24 hours, vs control
# Procedure: Total protein was extracted from all three populations 24 hours after treatment, as described in detail below. […] The labeled spots (i.e., the differentially expressed proteins) were chosen based on the results of software analysis designed to assess the respective fold changes of protein levels in the each of the respective spots.
# Caco-2 cells were seeded at 2×10^5 cells/ml density in Petri dishes. […] The cells were rinsed three times with ice-cold PBS, scraped gently, and collected in PBS. […] After desalting the protein was extracted using Amicon Ultra centrifugal filters (Ultracel-10K membrane) from Millipore, and the final protein amount was determined using the 2-D Quant kit (GE Healthcare).
# The first dimension electrophoresis was carried out on an Ettan IPGphor II (GE Healthcare) apparatus. […] The destained gels were then scanned at 300 dpi resolution, and the images were analyzed with Image Master™ 2D software (ver. 4.9: GE Healthcare). For statistical quantification, three experiments were performed for each experiment. […] Spots were expressed as percentages (% vol) of relative volumes by integrating the value of each pixel in the spot area as described previously in our study (see, e.g., Han et al. 2010). […]
# [8] = tested on: Caco-2 cells; remark: listed apart in the source
# [9] = tested on: Heat shock cognate 71 kDa protein (HSP7C); conditions: LAS 60 ppm, 12 hours after exposure
# Procedure: (§2) Caco-2 cells treatment and RNA extraction: Caco-2 cells were seeded at 2×10^5 cells/ml density in Petri dishes. […] Total RNA was then purified using the ISOGEN kit (Nippon GeneCo Ltd., Japan) following the manufacturer's instructions.
# (§3) cDNA synthesis: Total RNA was quantified using the Thermo scientific Nanodrop 2000 (USA), and reverse transcription reactions were performed using the Superscript III reverse transcriptase kit (Invitrogen, Carlsbad, Calif.) using 1 μg of total RNA. Briefly, RNA was denatured by incubation at 65° C. for 5 min, with 1 μL oligo (dT) primers, and chilled at 4° C. SuperScript III reverse transcriptase was then added and the reaction mix was incubated at 42° C. for 60 min, and then for 10 min at 70° C.
# Real-time PCR: The expression of TPM3, THIO, CALR and HSP7C, respectively, in treated Caco-2 cells was determined by real-time PCR using glyceraldehyde 3-phosphate dehydrogenase (GAPDH) as an internal positive control. […] TaqMan real-time PCR amplification reactions were performed in a 20 μl reaction mixtures containing: 10 μl of TaqMan Universal PCR Master Mix UNG (2×), 9 μl of template cDNA (100 ng μl^−1) and 1 μl of the corresponding primer/probe mix, using an AB 7500 fast real-time system (Applied Biosystems). […]
# [10] = tested on: Tropomyosin alpha-3 chain (TPM3); assay: Real-time PCR, TPM3 expression in Caco-2 cells; conditions: LAS 60 ppm
# Procedure: as §2, §3
# Real-time PCR: The expression of TPM3, THIO, CALR and HSP7C, respectively, in treated Caco-2 cells was determined by real-time PCR using glyceraldehyde 3-phosphate dehydrogenase (GAPDH) as an internal positive control. […] TaqMan real-time PCR amplification reactions were performed in a 20 μl reaction mixtures containing: 10 μl of TaqMan Universal PCR Master Mix UNG (2×), 9 μl of template cDNA (100 ng μl^−1) and 1 μl of the corresponding primer/probe mix, using an AB 7500 fast real-time system (Applied Biosystems). For the amplification, the following cycling conditions were applied: 2 min at 50° C., 10 min at 95° C., and 40 cycles of 15 s at 95° C./1 min at 60° C.
# [11] = tested on: Calreticulin (CALR); assay: Real-time PCR, CALR expression in Caco-2 cells; conditions: LAS 60 ppm
# Procedure: as §2, §3
# Real-time PCR: The expression of TPM3, THIO, CALR and HSP7C, respectively, in treated Caco-2 cells was determined by real-time PCR using glyceraldehyde 3-phosphate dehydrogenase (GAPDH) as an internal positive control. Oligos for TPM3 (Hs01900726_g1), THIO (Hs01555212_g1), CALR (Hs00189032_m1), HSP7C (Hs03045200_g1) and GAPDH (Hs02758991_g1) were inventoried gene expression assays (see Table 5). TaqMan real-time PCR amplification reactions were performed in a 20 μl reaction mixtures containing: 10 μl of TaqMan Universal PCR Master Mix UNG (2×), 9 μl of template cDNA (100 ng μl^−1) and 1 μl of the corresponding primer/probe mix, using an AB 7500 fast real-time system (Applied Biosystems). For the amplification, the following cycling conditions were applied: 2 min at 50° C., 10 min at 95° C., and 40 cycles of 15 s at 95° C./1 min at 60° C.
substance,measurement,setting,value
sodium dodecylbenzenesulfonate [LAS],cytotoxic effect on Caco-2 cells (MTT),"[1]; 0-70 ppm LAS, 24 h, 48 h, 72 h post-treatment",strong cytotoxic effect
same,cytotoxic effect on Caco-2 cells (MTT),[1]; LAS 5 ppm,no obvious cytotoxic effect
same,DNA fragmentation,[2],no DNA fragmentation was observed
same,THIO overexpression relative to the control,[3]; 3 hours,1.4 fold
same,THIO overexpression relative to the control,[3]; 6 hours,1.4 fold
same,THIO overexpression relative to the control,[3]; 12 hours,about 1.3 fold
same,THIO overexpression relative to the control,[3]; 24 hours,about 1.1 fold
same,ROS production,[4]; 12 hours post-treatment,returned to baseline levels (or lower)
same,ROS production,[4]; within the first 6 hours after treatment,significant ROS production
same,relative electrical resistance (TEER),"[5]; 5, 10, 30, and 60 ppm LAS over time",decreased with increasing concentration of LAS
same,time to decrease in barrier function efficiency,[5]; higher concentrations of LAS,≤ 30 min
same,cell death pathway (caspase assay),[6],non-apoptotic pathway
same,"change in protein expression, spots 1, 2, 4, 5, 7, 8, 9, 10, and 12",[7],up-regulation
same,"change in protein expression, spots 3, 6, 11, and 13",[7],down-regulation
same,intracellular calcium concentration,[8]; 3 and 6 hours post-treatment,decrease of the intracellular calcium concentration
same,intracellular calcium concentration,"[8]; 12 hours, continuing until 24 hours post-treatment",excessive increase of the intracellular calcium concentration
same,HSP7C expression relative to control,[9],significantly overexpressed
same,TPM3 overexpression relative to the control,[10]; 3 hours,1.2 fold
same,TPM3 overexpression relative to the control,[10]; 6 hours post-exposure,slightly below that of the control
same,TPM3 overexpression relative to the control,[10]; after 6 hours (time not given),~1.05 fold
same,CALR expression relative to control,[11]; 3 hours post-treatment,about 1.6 fold
same,CALR expression relative to control,[11]; 12 hours post-treatment,decreased to baseline levels
same,CALR expression relative to control,[11]; 24 hours after exposure,once again overexpressed
